Holding throughout (type): in vivo
Common to all, as to conditions: Dicamba 560 g ae/ha alone; Induce 0.25% v/v

Assay [1] concerns waterhemp (Amaranthus tuberculatus, AMATA). Nature of the assay: Greenhouse trial: dicamba (Engenia) with copolymer CP1, postemergence weed control.
The test system of assay [2] is velvetleaf (Abutilon theophrasti, ABUTH). The description is as above.
The test system of assay [3] is common lambsquarters (Chenopodium album; OCHEAL). The description is as above.
Assay [4] deals with AMATA, ABUTH, CHEAL. Description: Greenhouse trial: dicamba with copolymer CP1, mean over the three weed species.

In the case of `COc1c(Cl)ccc(Cl)c1C(=O)O` [Dicamba, dicamba], the “% Control (21 Days after Treatment) AMATA” value in assay [1] is 83%. For the same compound, the “% Control (21 Days after Treatment) ABUTH” value in assay [2] was 53%. Also, in assay [3], the “% Control (21 Days after Treatment) CHEAL” value was determined as 86%. In addition, the “% Control (21 Days after Treatment) Mean” value in assay [4] is 74%.
